Patent US20120302607A1, “C4-SUBSTITUTED ALPHA-KETO OXAZOLES” (The Scripps Research Institute, priority 2008, published 2012)
Read-outs that look alike come from different tables or passages of the source.

How the values were obtained:
[1] = target: T1, triacylglycerol hydrolase (TGH) (UniProt Q8VCT4); test: Proteome-wide serine hydrolase selectivity screening, TGH; type: biochemical, human; conditions: selectivity screening
T1 sequence (Q8VCT4 1-565): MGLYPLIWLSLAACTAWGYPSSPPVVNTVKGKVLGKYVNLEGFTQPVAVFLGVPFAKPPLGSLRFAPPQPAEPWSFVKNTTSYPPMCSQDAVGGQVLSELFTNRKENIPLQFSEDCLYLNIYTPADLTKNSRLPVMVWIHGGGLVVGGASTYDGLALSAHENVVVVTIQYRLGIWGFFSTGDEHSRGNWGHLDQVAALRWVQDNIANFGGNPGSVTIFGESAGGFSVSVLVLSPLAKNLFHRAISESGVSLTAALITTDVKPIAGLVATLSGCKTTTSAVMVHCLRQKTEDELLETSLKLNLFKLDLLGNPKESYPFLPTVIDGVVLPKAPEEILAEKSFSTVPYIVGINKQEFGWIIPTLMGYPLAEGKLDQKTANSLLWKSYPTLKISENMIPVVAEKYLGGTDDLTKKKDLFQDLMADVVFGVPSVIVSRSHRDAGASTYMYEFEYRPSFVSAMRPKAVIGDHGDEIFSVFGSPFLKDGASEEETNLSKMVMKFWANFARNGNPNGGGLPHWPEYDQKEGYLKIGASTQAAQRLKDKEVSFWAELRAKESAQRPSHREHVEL

FAAH = target: T2, FAAH (UniProt O08914); test: Proteome-wide serine hydrolase selectivity screening, FAAH; type: biochemical, human
T2 sequence (O08914 1-579): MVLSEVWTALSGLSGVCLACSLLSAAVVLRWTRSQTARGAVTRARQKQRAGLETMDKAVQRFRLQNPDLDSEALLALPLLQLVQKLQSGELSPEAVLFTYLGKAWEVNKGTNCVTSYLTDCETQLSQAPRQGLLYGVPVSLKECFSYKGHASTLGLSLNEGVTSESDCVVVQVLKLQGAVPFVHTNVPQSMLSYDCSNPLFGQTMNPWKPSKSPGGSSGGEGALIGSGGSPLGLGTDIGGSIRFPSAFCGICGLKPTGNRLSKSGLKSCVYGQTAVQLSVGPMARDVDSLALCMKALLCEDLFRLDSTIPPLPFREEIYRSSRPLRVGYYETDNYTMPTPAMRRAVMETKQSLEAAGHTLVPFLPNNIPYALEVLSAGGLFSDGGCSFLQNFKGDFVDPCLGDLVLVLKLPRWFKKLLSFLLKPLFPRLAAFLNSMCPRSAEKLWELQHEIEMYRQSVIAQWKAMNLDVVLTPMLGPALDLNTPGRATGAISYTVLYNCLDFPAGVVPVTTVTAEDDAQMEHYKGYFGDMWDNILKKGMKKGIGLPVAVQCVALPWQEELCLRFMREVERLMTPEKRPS

[2] = target: T3, membrane-associated hydrolase (KIAA1363) (UniProt Q8BLF1); test: Proteome-wide serine hydrolase selectivity screening, KIAA1363; type: biochemical; conditions: selectivity screening
T3 sequence (Q8BLF1 1-408): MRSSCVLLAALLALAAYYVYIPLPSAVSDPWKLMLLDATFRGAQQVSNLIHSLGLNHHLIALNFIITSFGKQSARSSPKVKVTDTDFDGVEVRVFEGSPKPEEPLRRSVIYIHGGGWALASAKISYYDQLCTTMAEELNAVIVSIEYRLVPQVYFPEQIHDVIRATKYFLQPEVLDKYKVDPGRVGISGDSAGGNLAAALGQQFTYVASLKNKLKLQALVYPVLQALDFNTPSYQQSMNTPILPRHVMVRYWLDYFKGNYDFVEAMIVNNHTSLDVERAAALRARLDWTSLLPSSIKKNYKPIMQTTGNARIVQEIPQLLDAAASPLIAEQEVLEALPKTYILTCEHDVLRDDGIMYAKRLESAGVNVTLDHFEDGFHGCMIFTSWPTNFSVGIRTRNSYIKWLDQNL

[3] = target: T4, truncated rat FAAH (rFAAH) (Rattus norvegicus, UniProt P97612); test: Rat FAAH inhibition enzyme assay (14C-oleamide hydrolysis, Dixon plot); type: biochemical
T4 construct: The truncated rat FAAH (rFAAH) was expressed in E. coli and purified as described by Patricelli et al; made in house; host or cells: E. coli
T4 sequence (P97612 30-579 limits assumed): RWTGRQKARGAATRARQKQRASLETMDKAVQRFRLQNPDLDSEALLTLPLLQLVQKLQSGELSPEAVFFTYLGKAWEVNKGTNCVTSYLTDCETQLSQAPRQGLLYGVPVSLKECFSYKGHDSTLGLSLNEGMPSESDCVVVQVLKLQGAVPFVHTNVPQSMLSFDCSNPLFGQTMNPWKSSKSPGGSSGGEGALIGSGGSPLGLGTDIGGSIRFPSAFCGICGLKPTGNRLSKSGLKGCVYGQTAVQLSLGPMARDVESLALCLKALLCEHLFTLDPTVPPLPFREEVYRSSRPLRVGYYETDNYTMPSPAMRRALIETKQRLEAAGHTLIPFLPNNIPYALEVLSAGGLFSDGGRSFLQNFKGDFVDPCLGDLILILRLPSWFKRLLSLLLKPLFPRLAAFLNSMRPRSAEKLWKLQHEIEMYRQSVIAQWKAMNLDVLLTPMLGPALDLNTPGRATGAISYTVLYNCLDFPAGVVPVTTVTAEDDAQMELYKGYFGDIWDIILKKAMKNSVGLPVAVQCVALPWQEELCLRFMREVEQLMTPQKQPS
Protocol: The purified recombinant rFAAH was used in the inhibition assays unless otherwise indicated.
The ^14C-labeled oleamide (substrate) and oleic acid (product) were extracted with EtOAc and analyzed by TLC. The Ki of the inhibitor was calculated using a Dixon plot (standard deviations are provided in the Supporting Information tables).

[4] = % hydration or hemiketal formation by 1H and 13C NMR in solvent; type: physicochemical; conditions: for form in protic solution: at C4, not C2, 1H and 13C NMR
Description: The evaluation of Ki provides information about active site binding. […] More subtly, aldehyde 4g (and trifluoromethyl ketone 4i) was established to exist in protic solution as gem diols (at C4, not C2; ^1H and ^13C NMR, data in Examples below).

[5] = tested on: triacylglycerol hydrolase (TGH); test: Proteome-wide serine hydrolase selectivity screening, TGH; type: biochemical, human; conditions: FAAH versus TGH; for TGH (selectivity): value in parentheses
[6] = tested on: membrane-associated hydrolase (KIAA1363); test: Proteome-wide serine hydrolase selectivity screening, KIAA1363; type: biochemical; conditions: value in parentheses; FAAH versus KIAA1363
[7] = Table 1, purified recombinant rFAAH, pH 9.0, read-out: Rat FAAH inhibition Ki
[8] = Table 4, value ± error, read-out: Ki, inhibition results with calculated errors
[9] = CD3OD, at the C4 substituent carbonyl

| IC50 [1] | IC50 [2] | Ki [3, 7] | Ki [3, 8] | Structure (SMILES) | also measured |
| --- | --- | --- | --- | --- | --- |
| 20 nM | 20000 nM | – | – | O=C(CCCCCCc1ccccc1)c1ncco1 [Compound 4a] | IC50 (FAAH): 2500 nM |
| – | – | 3 nM | 3 ± 0.02 nM | O=C(CCCCCCc1ccccc1)c1nc(Br)co1 [Compound 4b, 1-(4-Bromooxazol-2-yl)-7-phenylheptan-1-one] | – |
| – | – | 4 nM | 4 ± 0.05 nM | O=C(CCCCCCc1ccccc1)c1nc(Cl)co1 [Compound 4c, 1-(4-Chlorooxazol-2-yl)-7-phenylheptan-1-one] | – |
| – | – | 6.5 nM | 6.5 ± 0.26 nM | O=C(CCCCCCc1ccccc1)c1nc(I)co1 [Compound 4d, 1-(4-Iodooxazol-2-yl)-7-phenylheptan-1-one] | – |
| – | – | 520 nM | 520 ± 1 nM | Cc1coc(C(=O)CCCCCCc2ccccc2)n1 [Compound 4e, 1-(4-Methyloxazol-2-yl)-7-phenylheptan-1-one] | – |
| – | – | 29 nM | 29 ± 0.2 nM | CSc1coc(C(=O)CCCCCCc2ccccc2)n1 [Compound 4f, 1-(4-(Methylthio)oxazol-2-yl)-7-phenylheptan-1-one] | – |
| – | – | 55 nM | 55 ± 5 nM | O=Cc1coc(C(=O)CCCCCCc2ccccc2)n1 [Compound 4g, 2-(7-Phenylheptanoyl)oxazole-4-carbaldehyde] | % Hydration or Hemiketal Formation [4, 9]: >95% for CHO; % Hydration or Hemiketal Formation ([4]; CDCl3): 0%; form in protic solution [4]: gem diols |
| – | – | 2 nM | 2 ± 0.07 nM | CC(=O)c1coc(C(=O)CCCCCCc2ccccc2)n1 [Compound 4h, 1-(4-Acetyloxazol-2-yl)-7-phenylheptan-1-one] | – |
| – | – | 470 nM | 470 ± 2 nM | O=C(CCCCCCc1ccccc1)c1nc(C(=O)C(F)(F)F)co1 [Compound 4i, 7-Phenyl-1-(4-(2,2,2-trifluoroacetyl)oxazol-2-yl)heptan-1-one] | form in protic solution [4]: gem diols |
| – | – | 3.4 nM | 3.4 ± 0.05 nM | COC(=O)c1coc(C(=O)CCCCCCc2ccccc2)n1 [Compound 4j, Methyl 2-(7-Phenylheptanoyl)oxazole-4-carboxylate] | – |
| 10000 nM | > 100000 nM | 1.9 nM | 1.9 ± 0.02 nM | O=C(CCCCCCc1ccccc1)c1nc(-c2ccccn2)co1 [Compound 4k, 7-Phenyl-1-(4-(pyridin-2-yl)oxazol-2-yl)heptan-1-one] | Ki ([3]; Table 2, read-out: FAAH Ki): 1.9 nM; enhancement in FAAH selectivity ([5]; relative to 4a, text b175): > 40,000 fold; TGH (selectivity) [5]: (330); IC50 (FAAH): 30 nM; KIAA1363 (selectivity) [6]: (>3000) |
| – | – | 18 nM | 18 ± 0.1 nM | O=C(CCCCCCc1ccccc1)c1nc(-c2cccnc2)co1 [Compound 4l, 7-Phenyl-1-(4-(pyridin-3-yl)oxazol-2-yl)heptan-1-one] | % Hydration or Hemiketal Formation [4, 9]: >95% for COCF3; % Hydration or Hemiketal Formation ([4]; CDCl3): 33% |
| 700 nM | > 100000 nM | 1.6 nM | 1.6 ± 0.01 nM | O=C(CCCCCCc1ccccc1)c1nc(-c2ccncc2)co1 [Compound 4m, 7-phenyl-1-(4-(pyridin-4-yl)oxazol-2-yl)heptan-1-one] | Ki ([3]; Table 2, read-out: FAAH Ki): 1.7 nM; TGH (selectivity) [5]: (5); IC50 (FAAH): 140 nM; KIAA1363 (selectivity) [6]: (>700) |
| – | – | 65 nM | 65 ± 4.4 nM | O=C(CCCCCCc1ccccc1)c1nc(-c2ccccc2)co1 [Compound 4n, 7-Phenyl-1-(4-phenyloxazol-2-yl)heptan-1-one] | – |
| 2500 nM | > 100000 nM | 53 nM | 53 ± 1 nM | O=C(O)c1coc(C(=O)CCCCCCc2ccccc2)n1 [Compound 4o, 2-(7-Phenylheptanoyl)oxazole-4-carboxylic Acid] | Ki ([3]; Table 2, read-out: FAAH Ki): 53 nM; TGH (selectivity) [5]: (5); IC50 (FAAH): 500 nM; KIAA1363 (selectivity) [6]: (>200) |
| – | – | 1.6 nM | 1.6 ± 0.001 nM | NC(=O)c1coc(C(=O)CCCCCCc2ccccc2)n1 [Compound 4p, 2-(7-Phenylheptanoyl)oxazole-4-carboxamide] | – |
| – | – | 1.8 nM | 1.8 ± 0.005 nM | CNC(=O)c1coc(C(=O)CCCCCCc2ccccc2)n1 [Compound 4q, N-Methyl-2-(7-phenylheptanoyl)oxazole-4-carboxamide] | – |
| – | – | 35 nM | 35 ± 0.1 nM | CN(C)C(=O)c1coc(C(=O)CCCCCCc2ccccc2)n1 [Compound 4r, N,N-Dimethyl-2-(7-phenylheptanoyl)oxazole-4-carboxamide] | – |
| 30 nM | 30000 nM | 0.5 nM | 0.5 ± 0.009 nM | N#Cc1coc(C(=O)CCCCCCc2ccccc2)n1 [Compound 4s, 2-(7-Phenylheptanoyl)oxazole-4-carbonitrile] | Ki ([3]; Table 2, read-out: FAAH Ki): 0.6 nM; TGH (selectivity) [5]: (1.5); IC50 (FAAH): 20 nM; KIAA1363 (selectivity) [6]: (1500) |
| 60 nM | 10000 nM | 3.7 nM | 3.7 ± 0.02 nM | O=C(CCCCCCc1ccccc1)c1nc(C(F)(F)F)co1 [Compound 4t, 7-Phenyl-1-(4-(trifluoromethyl)oxazol-2-yl)heptan-1-one] | Ki ([3]; Table 2, read-out: FAAH Ki): 3.7 nM; TGH (selectivity) [5]: (0.15); IC50 (FAAH): 400 nM; KIAA1363 (selectivity) [6]: (25) |
| – | – | 740 nM | 740 ± 0.07 nM | COc1coc(C(=O)CCCCCCc2ccccc2)n1 [Compound 4u, 1-(4-Methoxyoxazol-2-yl)-7-phenylheptan-1-one] | – |
| 20 nM | > 100000 nM | – | – | N#Cc1cnc(C(=O)CCCCCCc2ccccc2)o1 [Compound 5b, reference compound] | – |
| – | > 100000 nM | – | – | O=C(CCCCCCc1ccccc1)c1ncc(-c2ccccn2)o1 [Compound 5c, reference compound] | – |
| > 100000 nM | > 100000 nM | – | – | O=C(O)c1cnc(C(=O)CCCCCCc2ccccc2)o1 [Compound 5d, reference compound] | IC50 (FAAH): 900 nM |
